Reference: BigSolDB 2.1

Work on `Cc1occc(=O)c1O` yielded a solubility (mole fraction) (in 1,2-dichloroethane, 288.15 K) of 0.0109, a solubility (mole fraction) (in 1,2-dichloroethane, 293.15 K) of 0.0143 and a solubility (mole fraction) (in 1,2-dichloroethane, 298.15 K) of 0.0174. It also gave a solubility (mole fraction) (in 1,2-dichloroethane, 303.15 K) of 0.0214, a solubility (mole fraction) (in 1,2-dichloroethane, 308.15 K) of 0.0262 and a solubility (mole fraction) (in 1,2-dichloroethane, 313.15 K) of 0.0333. For the same compound, the solubility (mole fraction) (in 1,2-dichloroethane, 318.15 K) was 0.0378, the solubility (mole fraction) (in 1,2-dichloroethane, 323.15 K) was 0.048 and the solubility (mole fraction) (in acetone, 288.15 K) was 0.0101. For the same compound, the solubility (mole fraction) (in acetone, 293.15 K) was 0.0116, the solubility (mole fraction) (in acetone, 298.15 K) was 0.0134 and the solubility (mole fraction) (in acetone, 303.15 K) was 0.0157. For the same compound, the solubility (mole fraction) (in acetone, 308.15 K) was 0.0195, the solubility (mole fraction) (in acetone, 313.15 K) was 0.023 and the solubility (mole fraction) (in acetone, 318.15 K) was 0.0265. For the same compound, the solubility (mole fraction) (in acetone, 323.15 K) was 0.0311, the solubility (mole fraction) (in acetonitrile, 288.15 K) was 0.00735 and the solubility (mole fraction) (in acetonitrile, 293.15 K) was 0.00861. The solubility (mole fraction) (in acetonitrile, 298.15 K) was 0.0107, the solubility (mole fraction) (in acetonitrile, 303.15 K) was 0.0136 and the solubility (mole fraction) (in acetonitrile, 308.15 K) was 0.016. For the same compound, the solubility (mole fraction) (in acetonitrile, 313.15 K) was 0.0209, the solubility (mole fraction) (in acetonitrile, 318.15 K) was 0.0258 and the solubility (mole fraction) (in acetonitrile, 323.15 K) was 0.0325. For the same compound, the solubility (mole fraction) (in ethanol, 288.15 K) was 0.00894, the solubility (mole fraction) (in ethanol, 293.15 K) was 0.0106 and the solubility (mole fraction) (in ethanol, 298.15 K) was 0.0125. The solubility (mole fraction) (in ethanol, 303.15 K) was 0.0156, the solubility (mole fraction) (in ethanol, 308.15 K) was 0.0211 and the solubility (mole fraction) (in ethanol, 313.15 K) was 0.0273. The solubility (mole fraction) (in ethanol, 318.15 K) was 0.0331, the solubility (mole fraction) (in ethanol, 323.15 K) was 0.0427 and the solubility (mole fraction) (in ethyl acetate, 288.15 K) was 0.0115. It also gave a solubility (mole fraction) (in ethyl acetate, 293.15 K) of 0.013, a solubility (mole fraction) (in ethyl acetate, 298.15 K) of 0.0153 and a solubility (mole fraction) (in ethyl acetate, 303.15 K) of 0.02. It also gave a solubility (mole fraction) (in ethyl acetate, 308.15 K) of 0.0225, a solubility (mole fraction) (in ethyl acetate, 313.15 K) of 0.0276 and a solubility (mole fraction) (in ethyl acetate, 318.15 K) of 0.0337. For the same compound, the solubility (mole fraction) (in ethyl acetate, 323.15 K) was 0.0413, the solubility (mole fraction) (in isobutanol, 288.15 K) was 0.00638 and the solubility (mole fraction) (in isobutanol, 293.15 K) was 0.00832. For the same compound, the solubility (mole fraction) (in isobutanol, 298.15 K) was 0.0108, the solubility (mole fraction) (in isobutanol, 303.15 K) was 0.0134 and the solubility (mole fraction) (in isobutanol, 308.15 K) was 0.0185. For the same compound, the solubility (mole fraction) (in isobutanol, 313.15 K) was 0.0238, the solubility (mole fraction) (in isobutanol, 318.15 K) was 0.0293 and the solubility (mole fraction) (in isobutanol, 323.15 K) was 0.0349. The solubility (mole fraction) (in isopropanol, 288.15 K) was 0.00683, the solubility (mole fraction) (in isopropanol, 293.15 K) was 0.00812 and the solubility (mole fraction) (in isopropanol, 298.15 K) was 0.0103. For the same compound, the solubility (mole fraction) (in isopropanol, 303.15 K) was 0.0129, the solubility (mole fraction) (in isopropanol, 308.15 K) was 0.0161 and the solubility (mole fraction) (in isopropanol, 313.15 K) was 0.021. The solubility (mole fraction) (in isopropanol, 318.15 K) was 0.0265, the solubility (mole fraction) (in isopropanol, 323.15 K) was 0.0328 and the solubility (mole fraction) (in methanol, 288.15 K) was 0.0135. The solubility (mole fraction) (in methanol, 293.15 K) was 0.0159, the solubility (mole fraction) (in methanol, 298.15 K) was 0.0185 and the solubility (mole fraction) (in methanol, 303.15 K) was 0.0223. For the same compound, the solubility (mole fraction) (in methanol, 308.15 K) was 0.0267, the solubility (mole fraction) (in methanol, 313.15 K) was 0.0325 and the solubility (mole fraction) (in methanol, 318.15 K) was 0.0373. It also gave a solubility (mole fraction) (in methanol, 323.15 K) of 0.0465, a solubility (mole fraction) (in n-butanol, 288.15 K) of 0.00705 and a solubility (mole fraction) (in n-butanol, 293.15 K) of 0.00917. The solubility (mole fraction) (in n-butanol, 298.15 K) was 0.0115, the solubility (mole fraction) (in n-butanol, 303.15 K) was 0.0143 and the solubility (mole fraction) (in n-butanol, 308.15 K) was 0.0182. It also gave a solubility (mole fraction) (in n-butanol, 313.15 K) of 0.0228, a solubility (mole fraction) (in n-butanol, 318.15 K) of 0.03 and a solubility (mole fraction) (in n-butanol, 323.15 K) of 0.0365. For the same compound, the solubility (mole fraction) (in n-butyl acetate, 288.15 K) was 0.00889, the solubility (mole fraction) (in n-butyl acetate, 293.15 K) was 0.0101 and the solubility (mole fraction) (in n-butyl acetate, 298.15 K) was 0.0128. The solubility (mole fraction) (in n-butyl acetate, 303.15 K) was 0.0148, the solubility (mole fraction) (in n-butyl acetate, 308.15 K) was 0.0193 and the solubility (mole fraction) (in n-butyl acetate, 313.15 K) was 0.0229. For the same compound, the solubility (mole fraction) (in n-butyl acetate, 318.15 K) was 0.0281, the solubility (mole fraction) (in n-butyl acetate, 323.15 K) was 0.0317 and the solubility (mole fraction) (in n-propanol, 288.15 K) was 0.00705. For the same compound, the solubility (mole fraction) (in n-propanol, 293.15 K) was 0.00931, the solubility (mole fraction) (in n-propanol, 298.15 K) was 0.0118 and the solubility (mole fraction) (in n-propanol, 303.15 K) was 0.0144. The solubility (mole fraction) (in n-propanol, 308.15 K) was 0.0182, the solubility (mole fraction) (in n-propanol, 313.15 K) was 0.0233 and the solubility (mole fraction) (in n-propanol, 318.15 K) was 0.028. The solubility (mole fraction) (in n-propanol, 323.15 K) was 0.0341, the solubility (mole fraction) (in n-propyl acetate, 288.15 K) was 0.00974 and the solubility (mole fraction) (in n-propyl acetate, 293.15 K) was 0.0105. The solubility (mole fraction) (in n-propyl acetate, 298.15 K) was 0.013, the solubility (mole fraction) (in n-propyl acetate, 303.15 K) was 0.0151 and the solubility (mole fraction) (in n-propyl acetate, 308.15 K) was 0.0181. The solubility (mole fraction) (in n-propyl acetate, 313.15 K) was 0.0226, the solubility (mole fraction) (in n-propyl acetate, 318.15 K) was 0.026 and the solubility (mole fraction) (in n-propyl acetate, 323.15 K) was 0.0316. It also gave a solubility (mole fraction) (in sec-butanol, 288.15 K) of 0.00716, a solubility (mole fraction) (in sec-butanol, 293.15 K) of 0.00927 and a solubility (mole fraction) (in sec-butanol, 298.15 K) of 0.0111. The solubility (mole fraction) (in sec-butanol, 303.15 K) was 0.0153, the solubility (mole fraction) (in sec-butanol, 308.15 K) was 0.0177 and the solubility (mole fraction) (in sec-butanol, 313.15 K) was 0.0244. The solubility (mole fraction) (in sec-butanol, 318.15 K) was 0.0304 and the solubility (mole fraction) (in sec-butanol, 323.15 K) was 0.0408.
